Measured values published in patent publication US10314843B2, “Combinations for the treatment of neoplasms using quiescent cell targeting and inhibitors of mitosis” (Felicitex Therapeutics, Inc., priority 2016, dated 2019).

Tests used:
Format in all cases: cell-based
SW620 cells = assay: FACS cell cycle distribution by DNA content (propidium iodide), SW620 cells in FBS- media; conditions: 24 hours in FBS- media, AZ191 2.5, 5, 10 μM, Compound I-7 1.25, 2.5, 5 μM
Method: Cell cultures were seeded into 6-well plates at 3×10^5-6×10^5 cells/well; the plated number of cells depended on cell size and rate of proliferation, aiming for approximately 50% confluency. After seeding, the cells were allowed to attach for 24 hours while incubated at 37° C. in a humidified 5% CO2 atmosphere, and then treated with compounds for desired amount of time (usually 24 hours) incubating under same conditions. Then the cells were harvested by trypsinization, pooled with the floating cells, washed in PBS, and fixed in 70% ice-cold ethanol overnight. […] […] The complete protocol and composition of buffers are described in the literature (Darzynkiewicz Z, Juan G, and Srour E F (2004) Differential Staining of DNA and RNA (2004). Current Protocols in Cytometry, Chapter 7:Unit 7.3).
The SW620 cells were cultured and treated as described in Example 1. For propidium iodide (PI) staining, manufacturer's protocol supplied with the Guava Cell Cycle Reagent for Flow Cytometry (EMD Millipore) was followed. The measurements were performed with Guava PCA-96 flow cytometer (EMD Millipore) using the green laser for excitation at 535 nm and monitoring emission at 617 nm.
The SW620 cells were cultured, treated, and analyzed as described in Examples 1. […]

DMS273 cells = assay: CellTiter-Glo cell viability assay, DMS273 cells; conditions: Homo sapiens, DMS-273, DMS273 cells
From the text: (§1) The following cell lines were obtained from ATCC and cultured according to the ATCC recommendations: DMS273—small cell lung cancer cell line; H1975—non-small cell lung cancer cell line harboring L858R and T790M mutations in EGFR TK; A549—a non-small cell lung cancer cell line with wild type EGFR; LNCap—prostate cancer cell line; SW620—colon cancer cell line; MiaPaCa2—pancreatic cancer cell line; PANC1—pancreatic cancer cell line; OVCAR3—ovarian cancer cell line; SK-OV-3—ovarian cancer cell line.
(§2) For viability analysis, cells were seeded into 96-well plates at 2×10^3-6×10^3 cells/well; the plated number of cells depended on cell size and rate of proliferation aiming for approximately 50% confluency. After seeding, the cells were allowed to attach for 24 hours incubated at 37° C. in a humidified 5% CO2 atmosphere.
(§3) The treatments were performed using at least 6 different concentrations of a compound in 1:3 serial dilutions in DMSO such that the DMSO concentration in the cell medium was <1%. The cell cultures were incubated for an additional 96 hours in 5% CO2 incubator at 37° C. Treatments were performed in triplicate. Results were analyzed by CellTiter-Glo™ Luminescent Cell Viability Assay (Promega, cat. #G7571) according to the manufacturer's instructions using Spectra MAX Gemini Spectrophotometer (Molecular Devices).

A549 cells = assay: CellTiter-Glo cell viability assay, A549 cells; conditions: Homo sapiens
From the text: as §1, §2, §3

H1975 cells = assay: CellTiter-Glo cell viability assay, H1975 cells; conditions: Homo sapiens, NCI-H1975, H1975 cells
From the text: as §1, §2, §3

PANC1 cells = assay: CellTiter-Glo cell viability assay, PANC1 cells; conditions: Homo sapiens, PANC-1, PANC1 cells
From the text: as §1, §2, §3

| SMILES | fraction of cells in quiescent state (G0), based on fraction of cells in G0+G1 phase (SW620 cells) | EC50 (DMS273 cells; Compound I-7 not present) [nM] | EC50 (DMS273 cells; Compound I-7 present at 2 μM) [nM] | EC50 (DMS273 cells; Compound I-7 present at 4 μM) [nM] | EC50 (A549 cells; Compound I-7 not present) [nM] | EC50 (A549 cells; Compound I-7 present at 3 μM) [nM] | EC50 (A549 cells; Compound I-7 present at 6 μM) [nM] | EC50 (H1975 cells; Compound I-7 not present) [nM] | EC50 (H1975 cells; Compound I-7 present at 2 μM) [nM] | EC50 (H1975 cells; Compound I-7 present at 4 μM) [nM] | EC50 (PANC1 cells; Compound I-7 not present) [nM] | EC50 (PANC1 cells; Compound I-7 present at 2 μM) [nM] | EC50 (PANC1 cells; Compound I-7 present at 4 μM) [nM] |
| --- | --- | --- | --- | --- | --- | --- | --- | --- | --- | --- | --- | --- | --- |
| COc1cc(N2CCN(C)CC2)ccc1Nc1nccc(-c2cn(C)c3cnccc23)n1 [AZ191] | no decrease in fraction of cells in quiescent state (G0) |  |  |  |  |  |  |  |  |  |  |  |  |
| CC[C@@H]1C(=O)N(C)c2cnc(Nc3ccc(C(=O)NC4CCN(C)CC4)cc3OC)nc2N1C1CCCC1 [BI2536] |  | 6.2 | 4.1 | 1.7 | 6.2 | 4.1 | 1.7 | 46.3 | 17.3 | < 0.04 | 7.3 | 4.4 | 2.5 |
| C[C@@H](Oc1cc(-n2cnc3ccc(CN4CCN(C)CC4)cc32)sc1C(N)=O)c1ccccc1C(F)(F)F [GSK461364] |  | 430 | 240 | 120 | 1200 | 500 | 200 | 1900 | 970 | 580 | 500 | 300 | 200 |
